Measured values as given in BindingDB's records for doi:10.1021/acschembio.6b00609 (University of Manchester, 2016).

These compounds were tested against Poly(ADP-ribose) glycohydrolase (Homo sapiens, UniProt Q86W56) (assay: PARG Biochemical Assay). Conditions: pH 7.4.
Method: Briefly, PARG in vitro assays were conducted in a total volume of 15 μL in a standard 384-well format. A total of 5 μL of human full length PARG (AstraZeneca), used at a final reaction concentration of 65 pM, was added to 5 μL of Bt-NAD ribosylated PARP1 substrate (AstraZeneca) at a final reaction concentration of 4.8 nM in assay buffer (50 mM Tris pH 7.4, 0.1 mg mL−1 BSA, 3 mM EDTA, 0.4 mM EGTA, 1 mM DTT, 0.01% Tween 20, 50 mM KCl). The reaction was incubated at RT for 10 min, and then 5 μL of detection reagent was added. Detection reagent consists of 42 nM mAb anti-6HIS XL665 (CisBio: 61HISXLB) and2.25 nM streptavidin europium cryptate (CisBio: 610SAKLB), both at 3× working stock concentrations (final concentrations of 14 nM and 0.75 nM, respectively), in detection buffer (50 mM Tris pH 7.4, 0.1 mg mL−1 BSA and 100 mM KF). Following incubation at RT for 60 min in the dark, TR-FRET signal was measured at λEx 340 nm and λEm 665 nm and λEm

Poly(ADP-ribose) glycohydrolase, sequence (Q86W56 whole entry): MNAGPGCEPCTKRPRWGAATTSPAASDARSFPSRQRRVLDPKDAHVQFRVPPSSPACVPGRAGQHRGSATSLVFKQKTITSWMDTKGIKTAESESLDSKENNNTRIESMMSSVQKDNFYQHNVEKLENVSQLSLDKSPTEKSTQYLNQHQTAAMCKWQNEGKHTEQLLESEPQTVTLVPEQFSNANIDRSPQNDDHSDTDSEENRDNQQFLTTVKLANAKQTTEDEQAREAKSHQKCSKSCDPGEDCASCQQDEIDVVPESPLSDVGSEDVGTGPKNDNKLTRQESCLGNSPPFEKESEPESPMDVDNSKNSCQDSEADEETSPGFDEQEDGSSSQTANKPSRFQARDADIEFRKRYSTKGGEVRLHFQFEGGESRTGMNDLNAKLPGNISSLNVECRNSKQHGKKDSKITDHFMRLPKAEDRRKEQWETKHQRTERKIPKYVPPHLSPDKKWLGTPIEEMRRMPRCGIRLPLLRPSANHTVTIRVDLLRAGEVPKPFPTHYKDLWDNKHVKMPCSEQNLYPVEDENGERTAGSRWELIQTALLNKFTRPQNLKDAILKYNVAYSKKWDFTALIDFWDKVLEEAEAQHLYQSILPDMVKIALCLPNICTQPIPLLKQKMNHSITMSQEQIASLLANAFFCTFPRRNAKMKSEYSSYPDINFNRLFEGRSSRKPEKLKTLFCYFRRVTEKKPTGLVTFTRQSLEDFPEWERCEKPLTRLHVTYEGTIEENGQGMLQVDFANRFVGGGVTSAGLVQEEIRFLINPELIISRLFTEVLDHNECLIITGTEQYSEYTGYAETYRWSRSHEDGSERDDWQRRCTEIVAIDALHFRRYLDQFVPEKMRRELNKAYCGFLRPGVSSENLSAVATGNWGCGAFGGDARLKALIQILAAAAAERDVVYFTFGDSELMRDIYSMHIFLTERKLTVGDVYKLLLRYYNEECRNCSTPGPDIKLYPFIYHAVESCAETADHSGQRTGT

IC50 [µM]	SMILES
> 60	CC(C)(C)NS(=O)(=O)c1ccc2c(c1)C(=O)c1ccccc1C2=O [PDD00013907 (1)]
> 60	Cc1cc(Cn2c(=O)n(Cc3cnc(C)s3)c(=O)c3cc(S(=O)(=O)N(C)C4(C)CC4)ccc32)n(C)n1 [PDD00031704 (6)]
> 60	Cc1nc(C)c(Cn2c(=O)n(-c3ncns3)c3cc(S(=O)(=O)N(C)C4(C)CC4)ccc32)s1 [PDD00031705 (7)]

The remaining lines, values behind:

SMILES	IC50 [µM]
Cc1nc(C)c(Cn2c(=O)n(-c3ncns3)c3cc(S(=O)(=O)NC4(C)CC4)ccc32)s1 [PDD00017238 (5)]	0.04
Cc1cc(Cn2c(=O)n(Cc3cnc(C)s3)c(=O)c3cc(S(=O)(=O)NC4(C)CC4)ccc32)n(C)n1 [PDD00017273 (4)]	0.026
